In patent US20210147343A1 (priority 2018, published 2021):
Like-named read-outs stand apart in the source and are kept apart here.

Columns and labels:
[1] = target: T1, kappa opioid receptor (KOR) (Homo sapiens, UniProt P41145); assay: cell-based; details: after activation with dynorphin B
T1 construct: host or cells: CHO-K1
From the text: KOR cAMP Antagonist Assay

mu opioid receptor (MOR) [2] = target: T2, mu opioid receptor (MOR) (Homo sapiens, UniProt P35372); assay: MOR cAMP agonist assay
mu opioid receptor (MOR) [3] = target: T2, mu opioid receptor (MOR); assay: MOR GTPγS agonist assay; assay type: biochemical; parameters: host or cells: CHO-K1; details: membranes of CHO cells over-expressing MOR; SPA beads; read-out: MOR GTPγS EC50
From the text: Membranes obtained from the stable cell lines over-expressing MOR were subjected to GTPγS assay using SPA beads (Perkin Elmer, Cat #RPNQ0001).

[4] = kOR cAMP IC50, CHO-K1 cells expressing kOR
[5] = CHO-K1 cells expressing kOR, read-out: kOR cAMP IC50

T1 sequence (P41145 whole entry): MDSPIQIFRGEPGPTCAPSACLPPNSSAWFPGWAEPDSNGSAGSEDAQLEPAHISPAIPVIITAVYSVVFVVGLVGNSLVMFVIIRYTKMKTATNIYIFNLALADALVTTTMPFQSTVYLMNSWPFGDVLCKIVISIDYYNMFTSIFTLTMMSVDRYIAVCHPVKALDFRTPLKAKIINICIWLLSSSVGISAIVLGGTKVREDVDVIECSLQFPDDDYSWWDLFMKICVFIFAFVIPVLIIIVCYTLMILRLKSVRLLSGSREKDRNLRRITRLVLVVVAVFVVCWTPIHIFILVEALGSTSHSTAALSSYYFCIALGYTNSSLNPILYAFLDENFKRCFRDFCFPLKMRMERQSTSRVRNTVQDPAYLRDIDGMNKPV
T2 sequence (P35372 whole entry): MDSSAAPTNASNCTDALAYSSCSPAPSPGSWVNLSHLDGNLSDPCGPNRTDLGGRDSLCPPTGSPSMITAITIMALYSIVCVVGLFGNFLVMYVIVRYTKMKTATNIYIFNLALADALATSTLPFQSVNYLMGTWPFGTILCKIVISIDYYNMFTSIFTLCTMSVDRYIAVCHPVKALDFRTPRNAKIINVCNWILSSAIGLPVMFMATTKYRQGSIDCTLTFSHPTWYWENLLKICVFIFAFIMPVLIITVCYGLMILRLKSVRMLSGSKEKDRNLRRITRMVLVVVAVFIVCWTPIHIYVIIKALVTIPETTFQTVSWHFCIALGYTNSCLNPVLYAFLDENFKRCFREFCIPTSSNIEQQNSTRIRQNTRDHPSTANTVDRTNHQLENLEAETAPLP

Row | SMILES | IC50 [1, 4] | EC50 (mu opioid receptor (MOR) [2]) | IC50 [1, 5] | EC50 (mu opioid receptor (MOR) [3])
1 | C[C@H](NC(=O)NC[C@H](Cc1ccc(C(N)=O)cc1)N(C)C)c1ccccc1 [Compound A-1, 4-((S)-2-(dimethylamino)-3-(3-((S)-1-phenylethyl)ureido)propyl) benzamide] | 100 to 1000 nM | > 1000 nM | – | –
2 | C[C@H](OC(=O)NC[C@@H](N)Cc1ccc(C(N)=O)cc1)c1ccccc1 [Compound A-2, (S)-1-phenylethyl ((S)-2-amino-3-(4-carbamoylphenyl)propyl)carbamate] | – | > 1000 nM | > 1000 nM | –
3 | C[C@H](OC(=O)NC[C@H](Cc1ccc(C(N)=O)cc1)N(C)C)c1ccccc1 [Compound A-3, (S)-1-phenylethyl ((S)-3-(4-carbamoylphenyl)-2-(dimethylamino)propyl) carbamate] | > 1000 nM | < 100 nM | – | –
4 | CN(C)[C@H](CNC(=O)N[C@H](c1ccccc1)C1CC1)Cc1ccc(C(N)=O)cc1 [Compound A-4, 4-((S)-3-(3-((S)-cyclopropyl(phenyl)methyl)ureido)-2-(dimethylamino)propyl)benzamide] | < 100 nM | < 100 nM | – | –
5 | Cc1cc(C(N)=O)cc(C)c1C[C@H](N)CNC(=O)O[C@@H](C)c1ccccc1 [Compound A-5, (S)-1-phenylethyl ((S)-2-amino-3-(4-carbamoyl-2,6-dimethylphenyl)propyl)carbamate] | < 100 nM | 100 to 1000 nM | – | –
6 | Cc1cc(C(N)=O)cc(C)c1C[C@H](N)CNC(=O)N[C@H](c1ccccc1)C1CC1 [Compound A-6, 4-((S)-2-amino-3-(3-((S)-cyclopropyl(phenyl)methyl)ureido)propyl)-3,5-dimethylbenzamide] | 100 to 1000 nM | 100 to 1000 nM | – | –
7 | Cc1cc(C(N)=O)cc(C)c1C[C@@H](CNC(=O)O[C@@H](C)c1ccccc1)N(C)C [Compound A-7, (S)-1-phenylethyl ((S)-3-(4-carbamoyl-2,6-dimethylphenyl)-2-(dimethylamino)propyl)carbamate] | 100 to 1000 nM | > 1000 nM | – | –
8 | Cc1cc(C(N)=O)cc(C)c1C[C@@H](CNC(=O)C[C@H](C)c1ccccc1)N(C)C [Compound A-8, 4-((S)-2-(dimethylamino)-3-((S)-3-phenylbutanamido)propyl)-3,5-dimethylbenzamide] | – | > 1000 nM | > 1000 nM | –
9 | Cc1cc(C(N)=O)cc(C)c1C[C@@H](CNC(=O)N[C@H](c1ccccc1)C1CC1)N(C)C [Compound A-9, 4-((S)-3-(3-((S)-cyclopropyl(phenyl)methyl)ureido)-2-(dimethylamino)propyl)-3,5-dimethylbenzamide] | – | > 1000 nM | > 1000 nM | –
10 | C[C@H](CC(=O)NC[C@H](Cc1ccc(C(N)=O)cc1)N(C)C)c1ccccc1 [Compound A-10, 4-((S)-2-(dimethylamino)-3-((R)-3-phenylbutanamido)propyl)benzamide] | 100 to 1000 nM | – | – | –
11 | Cc1cc(C(N)=O)cc(C)c1C[C@@H](CNC(=O)C[C@@H](C)c1ccccc1)N(C)C [Compound A-11, 4-((S)-2-(dimethylamino)-3-((R)-3-phenylbutanamido)propyl)-3,5-dimethylbenzamide] | 100 to 1000 nM | > 1000 nM | – | –
12 | CN(C)[C@H](CNC(=O)[C@@H]1C[C@@]1(C)c1ccccc1)Cc1ccc(O)cc1Cl [Compound B-1, (1R,2R)—N—((S)-3-(2-chloro-4-hydroxyphenyl)-2-(dimethylamino)propyl)-2-methyl-2-phenylcyclopropane-1-carboxamide] | < 100 nM | < 100 nM | – | –
13 | CNC(=O)c1ccc(C[C@@H](CNC(=O)[C@@H]2C[C@@]2(C)c2ccccc2)N(C)C)cc1F [Compound B-2, 4-((S)-2-(dimethylamino)-3-((1R,2R)-2-methyl-2-phenylcyclopropane-1-carboxamido)propyl)-2-fluoro-N-methylbenzamide] | > 1000 nM | < 100 nM | – | –
14 | CN(C)[C@H](CNC(=O)[C@@H]1C[C@@]1(C)c1ccccc1)Cc1ccc(C(N)=O)cc1 [Compound B-3, 4-((S)-2-(dimethylamino)-3-((1R,2R)-2-methyl-2-phenylcyclopropane-1-carboxamido)propyl)benzamide] | > 1000 nM | < 100 nM | – | –
15 | CN(C)[C@H](CNC(=O)[C@H]1C[C@@]1(C)c1ccccc1)Cc1ccc(C(N)=O)cc1 [Compound B-4, 4-((S)-2-(dimethylamino)-3-((1S,2R)-2-methyl-2-phenylcyclopropane-1-carboxamido)propyl)benzamide] | 100 to 1000 nM | < 100 nM | – | –
16 | CN(C)[C@H](CNC(=O)[C@@H]1C[C@]1(C)c1ccccc1)Cc1ccc(C(N)=O)cc1 [Compound B-5, 4-((S)-2-(dimethylamino)-3-((1R,2S)-2-methyl-2-phenylcyclopropane-1-carboxamido)propyl)benzamide] | < 100 nM | < 100 nM | – | –

Row | SMILES | IC50 [1, 4] | EC50 (mu opioid receptor (MOR) [2]) | IC50 [1, 5] | EC50 (mu opioid receptor (MOR) [3])
17 | CN(C)[C@H](CNC(=O)[C@@H]1C[C@@]1(C)c1ccccc1)Cc1ccc(C(N)=O)cc1Cl [Compound B-6, 3-chloro-4-((S)-2-(dimethylamino)-3-((1R,2R)-2-methyl-2-phenylcyclopropane-1-carboxamido)propyl)benzamide] | 100 to 1000 nM | < 100 nM | – | –
18 | CN(C)[C@H](CNC(=O)[C@@H]1C[C@]1(C)c1ccccc1)Cc1ccc(C(N)=O)cc1Cl [Compound B-7, 3-chloro-4-((S)-2-(dimethylamino)-3-((1R,2S)-2-methyl-2-phenylcyclopropane-1-carboxamido)propyl)benzamide] | < 100 nM | < 100 nM | – | –
19 | Cc1cc(C(N)=O)cc(C)c1C[C@@H](CNC(=O)[C@@H]1C[C@@]1(C)c1ccccc1)N(C)C [Compound B-8, 4-((S)-2-(dimethylamino)-3-((1R,2R)-2-methyl-2-phenylcyclopropane-1-carboxamido)propyl)-3,5-dimethylbenzamide] | 100 to 1000 nM | < 100 nM | – | –
20 | CN(C)[C@H](CNC(=O)[C@H]1CCCN1c1ccccc1)Cc1ccc(C(N)=O)cc1 [Compound B-9, (R)—N—((S)-3-(4-carbamoylphenyl)-2-(dimethylamino)propyl)-1-phenylpyrrolidine-2-carboxamide] | > 1000 nM | 100 to 1000 nM | – | –
21 | CN(C)[C@H](CNC(=O)[C@@H]1CCCN1c1ccccc1)Cc1ccc(C(N)=O)cc1 [Compound B-10, (S)—N—((S)-3-(4-carbamoylphenyl)-2-(dimethylamino)propyl)-1-phenylpyrrolidine-2-carboxamide] | 100 to 1000 nM | 100 to 1000 nM | – | –
22 | CN(C)[C@H](CNC(=O)[C@H]1C[C@@H]1c1ccccc1)Cc1ccc(O)cc1 [Compound B-18, (1S,2S)—N—((S)-2-(dimethylamino)-3-(4-hydroxyphenyl)propyl)-2-phenylcyclopropane-1-carboxamide] | 100 to 1000 nM | – | – | –
23 | CN(C)[C@H](CNC(=O)[C@@H]1C[C@]1(C)c1ccccc1)Cc1cc(F)c(O)c(Cl)c1 [Compound B-24, (1R,2S)—N—((S)-3-(3-chloro-5-fluoro-4-hydroxyphenyl)-2-(dimethylamino)propyl)-2-methyl-2-phenylcyclopropane-1-carboxamide] | 100 to 1000 nM | – | – | –
24 | CCNC(=O)c1ccc(C[C@@H](CNC(=O)[C@@H]2C[C@]2(C)c2ccccc2)N(C)C)cc1F [Compound B-34, 4-((S)-2-(dimethylamino)-3-((1R,2S)-2-methyl-2-phenylcyclopropane-1-carboxamido)propyl)-N-ethyl-2-fluorobenzamide] | – | < 100 nM | – | –
25 | CN(C)[C@H](CNC(=O)[C@@H]1C[C@@]1(C)c1ccccc1)Cc1ccc(O)cc1F [Compound B-44, (1R,2R)—N—((S)-2-(dimethylamino)-3-(2-fluoro-4-hydroxyphenyl)propyl)-2-methyl-2-phenylcyclopropane-1-carboxamide] | > 1000 nM | – | – | –
26 | CN1Cc2cc(O)ccc2C[C@H]1CNC(=O)[C@@H]1C[C@]1(C)c1ccccc1 [Compound B-50, (1R,2S)—N—(((S)-7-hydroxy-2-methyl-1,2,3,4-tetrahydroisoquinolin-3-yl)methyl)-2-methyl-2-phenylcyclopropane-1-carboxamide] | – | < 100 nM | – | –
27 | CN1Cc2cc(O)ccc2C[C@H]1CNC(=O)[C@@H]1C[C@@]1(C)c1ccccc1 [Compound B-51, (1R,2R)—N—(((S)-7-hydroxy-2-methyl-1,2,3,4-tetrahydroisoquinolin-3-yl)methyl)-2-methyl-2-phenylcyclopropane-1-carboxamide] | – | < 100 nM | – | –
28 | CN(C)[C@H](CNC(=O)[C@@H]1C[C@@]1(C)c1ccccc1)Cc1cc2cn[nH]c2cc1Cl [Compound B-52, (1R,2R)—N—((S)-3-(6-chloro-2H-indazol-5-yl)-2-(dimethylamino)propyl)-2-methyl-2-phenylcyclopropane-1-carboxamide] | – | < 100 nM | – | –
29 | CN(C)[C@H](CNC(=O)[C@@H]1C[C@@]1(C)c1ccccc1)Cc1ccc2[nH]c(=O)oc2c1 [Compound B-53, (1R,2R)—N—((S)-2-(dimethylamino)-3-(2-oxo-2,3-dihydrobenzo[d]oxazol-6-yl)propyl)-2-methyl-2-phenylcyclopropane-1-carboxamide] | – | < 100 nM | – | –
30 | CN(C)[C@H](CNC(=O)[C@@H]1C[C@@]1(C)c1ccccc1)Cc1ccc(O)c(Cl)c1 [Compound B-59, (1R,2R)—N—((S)-3-(3-chloro-4-hydroxyphenyl)-2-(dimethylamino)propyl)-2-methyl-2-phenylcyclopropane-1-carboxamide] | – | < 100 nM | – | –
31 | CNC(=O)c1cc(C)c(C[C@@H](CNC(=O)c2ccccc2)N(C)C)c(C)c1 [Compound C-45] | > 1000 nM | – | – | < 100 nM
32 | Cc1ccc(C(=O)NC[C@H](Cc2ccc(C(N)=O)cc2)N(C)C)c(C)c1 [Compound C-67, (S)—N-(3-(4-carbamoylphenyl)-2-(dimethylamino)propyl)-2,4-dimethylbenzamide] | > 1000 nM | – | – | < 100 nM
